Data from patent US7812015B2, “Prophylaxis and treatment of infectious diseases” (priority 2002, dated 2010).
Where two headings read alike, the source gives them in different places.

Experiments:
[1] = test system: rhinovirus strains (RV14, RV16); test: Infection of Hela epithelial cells with various rhinovirus strains, cytotoxic effect by FITC-annexin flow cytometry; assay type: cell-based, human; settings: RV14 and RV16, 24 h, drug added in serum-free medium 30 min before infection
Text: (§1) This was shown for Hela cells as example. […] Means±standard deviation for three experiments are shown. […] This is depicted in FIG. 2. […] Means±standard deviation of three experiments are depicted. […] 2. Infection with HIV

rhinovirus strain 14 = test: Infection of Hela epithelial cells with rhinovirus strain 14, cytotoxic effect by flow cytometry after FITC-annexin staining; assay type: cell-based, human; settings: rhinovirus strain 14, 24 h, drug added in serum-free medium 30 min before infection
Text: as §1

Hela epithelial cells = test system: Hela epithelial cells
Method: (§2) The cells were infected with rhinoviruses (strain 14, MOI 25), and the sphingomyelinase activity in cell lysates was measured. For this purpose, the cells were washed after the infection, taken up in 250 mM sodium acetate (pH 5.0), 1.3 mM EDTA and 0.05% NP40, disrupted by ultrasound treatment with a sonicator probe at low energy, and incubated with [^14C]sphingomyelin (0.5 μCi/sample, 54.5 mCi/mmol; NEN) for 30 min The in vitro enzyme assay was stopped by adding 800 μl of a 2:1 column mixture of CHCl3 and CH3OH (v/v) and 200 μl of H2O, and the liberation of [^14C]phosphorylcholine into the aqueous supernatant was measured by scintigraphy after organic extraction. […] Hela cells were again infected with rhinoviruses (strain 14) for this purpose. Ceramide was measured by a diacylglycerol (DAG) kinase assay (Grassme et al., Cell 91, 605-615, 1997). Ceramide was converted into [^32P]-ceramide by adding DAG kinase and [^32P]γATP. The phosphorylated ceramide was fractionated by thin layer chromatography and determined by scintigraphy. […] Infection of human epithelial cells by rhinoviruses was measured in flow cytometric analyses of the cytopathic effect of the viruses. […] 2.

[2] = target: T1, acid sphingomyelinase (ASM) (Homo sapiens, UniProt P17405); test: Acid sphingomyelinase activity in lysates of Hela cells infected with rhinovirus strain 14 ([14C]sphingomyelin assay); assay type: cell-based; settings: rhinovirus strain 14, MOI 25, preincubation with inhibitor
T1 construct: endogenous in cells; host or cells: HeLa cells infected with rhinovirus strain 14
T1 sequence (P17405 47-631): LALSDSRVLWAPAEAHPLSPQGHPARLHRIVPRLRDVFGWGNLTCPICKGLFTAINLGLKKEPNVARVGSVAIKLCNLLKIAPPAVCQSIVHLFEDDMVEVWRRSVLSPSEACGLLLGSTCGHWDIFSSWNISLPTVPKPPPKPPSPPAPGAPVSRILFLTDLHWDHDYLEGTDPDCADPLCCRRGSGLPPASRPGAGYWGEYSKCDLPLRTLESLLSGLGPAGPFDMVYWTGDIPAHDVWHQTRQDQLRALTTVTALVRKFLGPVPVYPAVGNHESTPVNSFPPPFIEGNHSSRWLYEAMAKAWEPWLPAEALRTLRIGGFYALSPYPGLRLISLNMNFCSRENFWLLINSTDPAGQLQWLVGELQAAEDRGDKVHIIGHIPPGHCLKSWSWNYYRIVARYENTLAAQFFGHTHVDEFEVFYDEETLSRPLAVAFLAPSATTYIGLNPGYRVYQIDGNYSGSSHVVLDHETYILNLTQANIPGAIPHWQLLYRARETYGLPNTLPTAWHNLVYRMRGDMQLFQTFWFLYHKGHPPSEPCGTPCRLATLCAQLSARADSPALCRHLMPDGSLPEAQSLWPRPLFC
Method: as §2

ceramide = test: Ceramide liberation in rhinovirus-infected Hela cells (DAG kinase assay); assay type: cell-based, human; settings: Hela cells infected with rhinovirus strain 14, preincubation
Text: as §1

Row | Compound | inhibition of viral infection (cytotoxic effect of the viruses) [1] | inhibition of viral infection (cytotoxic effect of the virus) (rhinovirus strain 14) | cytotoxic effect of the drug itself on the cells (Hela epithelial cells) | activity of acid sphingomyelinase after preincubation of the cells [2] | liberation of ceramide after preincubation of the cells (ceramide) | cytotoxic effect of the drug itself on the cells (Hela epithelial cells; Hela cells)
1 | CN(C)CCCN1c2ccccc2CCc2ccccc21 [imipramine] | almost completely inhibit the viral infection | almost completely inhibits the viral infection | no cytotoxic effect |  |  | 
2 | CN(C)CCC=C1c2ccccc2CCc2ccccc21 [amitryptiline] | almost completely inhibit the viral infection | almost completely inhibits the viral infection |  | blocks the activity of acid sphingomyelinase | abolishes the liberation of ceramide | no cytotoxic effect
